Where “and” joins values, the source holds several entries; their conditions need not be identical. Identical values can stand only once. Values belong to the compound of their own block, whether it stands above or below them.
Legend:
Assay type in all cases: physicochemical
[1] = Particle size after dissolution in water by photon correlation spectroscopy (Malvern Zetasizer Nano ZSP); details: PCS; for particle size / polydispersity index PDI: dry powder with propyl gallate added to the dispersion (Examples 1, 3b, 3c, 3d)
Procedure: The particle size is determined by means of a Malvern Zetasizer Nano ZSP.
30 g of citranaxanthin were suspended in 240 g of isopropanol together with 1.1 g of ascorbyl palmitate and, with setting of the pressure-limiting valve to 30 bar, mixed continuously with 390 g of isopropanol in a mixing chamber A. At a metering rate of 6 L/h on the suspension side and of 9 L/h on the solvent side, a mixing temperature of 170° C. was established in the mixing chamber A. After a residence time of 0.3 second, the molecularly disperse solution was mixed in mixing chamber B with a solution of 32 g of gelatin, 71.4 g of sucrose and 50 g of glucose syrup in 4000 g of water at a throughput rate of 100 L/h. After the solvent had been removed under reduced pressure in a distillation apparatus, an active ingredient dispersion was obtained, to which 8 g of sunflower oil and 8 g of propyl gallate were added. The propyl gallate was predissolved here in 200 mL of water and adjusted to pH 7 with NaOH. Subsequently, the dispersion was converted to a stable, water-soluble dry powder by spray drying. After dissolution in water, by photon correlation spectroscopy (PCS), a particle size of 386 nm (standard deviation 142.5, polydispersity index PDI 0.185, D(95): 660 nm) was measured (Malvern Zetasizer Nano ZSP).

[2] = Stress test: stability in premix mixture, stored at 40° C. and 70% humidity for 4 weeks, retention of vitamin content; details: for Retention Active ingredient content after 4-week premix test: Table 3b
Procedure: The stress test for the vitamins is configured such that specimens of 100 mg in each case of the formulation produced and 4 g of premix mixture are weighed into glass vessels. The premix mixture consists of 50% by weight of fine lime (particle size <1000 μm), 20% by weight of wheat bran (particle size <1000 μm), 20% by weight of 50% silica-supported choline chloride (particle size <1000 μm) and 10% by weight of trace element mixture (particle size 100-500 μm). The trace element mixture is composed of 46.78% by weight of FeSO4x7H2O (100-500 μm), 37.43% by weight of CuSO4x5H2O (100-500 μm), 11.79% by weight of ZnO (<500 μm), 3.61% by weight of MnO and 0.39% by weight of CoCO3. After addition of all ingredients, the specimens are mixed cautiously, with performance of the mixing mechanically or else by hand, and these specimens (A) are stored in a climate-controlled chamber at 40° C. and 70% humidity for 4 weeks. […]
For this purpose, specimens each of 100 mg of the formulation produced and 4 g of premix mixture are weighed out in glass vessels (50 mL glass vials). The premix mixture consists of 50% by weight of fine lime (particle size <1000 μm), 20% by weight of wheat bran (particle size <1000 μm), 20% by weight of 50% silica-supported choline chloride (particle size <1000 μm) and 10% by weight of trace element mixture (particle size 100-500 μm), said trace element mixture consisting of 46.78% by weight of FeSO4x7H2O (100-500 μm), 37.43% by weight of CuSO4x5H2O (100-500 μm), 11.79% by weight of ZnO (<500 μm), 3.61% by weight of MnO and 0.39% by weight of CoCO3. After addition of all ingredients, the specimens are mixed cautiously, where the mixing can be performed mechanically or else by hand, and these specimens (A) are stored in a climate-controlled chamber at 40° C. and 70% humidity for 4 weeks. An identical test is conducted with a comparative sample (B) which is of identical composition but which comprises, rather than propyl gallate, the same amount of ethoxyquin. […] The ratio of the contents after (A2), (B2) and before the storage (A1) and (B1) are used here to calculate the retention (A2/A1) or (B2/B1) of the samples. For the formulations of the invention, a quotient (A2/A1):(B2/B1) of at least 0.75 is determined here. Preferably, for the formulations of the invention, a quotient of at least 1 is obtained.
The stability of the particles thus produced was tested in a stress test. For this purpose, specimens each of 100 mg of the particles produced and 4 g of premix mixture were weighed into 50 mL glass bottles. The premix mixture consisted of 50% by weight of fine lime (particle size <1000 μm), 20% by weight of wheat bran (particle size <1000 μm), 20% by weight of 50% silica-supported choline chloride (particle size <1000 μm) and 10% by weight of trace element mixture (particle size 100-500 μm), and the trace element mixture of 46.78% by weight of FeSO4x7H2O (100-500 μm), 37.43% by weight of CuSO4x5H2O (100-500 μm), 11.79% by weight of ZnO (<500 μm), 3.61% by weight of MnO and 0.39% by weight of CoCO3. After addition of all ingredients, the specimens were carefully mixed by hand. These specimens were stored in a climate-controlled chamber at 40° C. and 70% air humidity for 4 weeks. […]

[3] = Particle size after dissolution in water by photon correlation spectroscopy (Malvern Zetasizer Nano ZSP); details: PCS
[4] = Table 4b, D,L-α tocopherol 4% by wt. (in active ingredient phase) + propyl gallate 4% by wt. (in protective colloid phase)
[5] = Table 4b, mixed tocopherol 4% by wt. (in active ingredient phase) + propyl gallate 4% by wt. (in protective colloid phase)
[6] = dry powder with 4% by weight of propyl gallate and 4% by weight of butylhydroxytoluene
[7] = dry powder with 4% by weight of propyl gallate and 4% by weight of mixed tocopherol

- D(95) ([1]; dry powder with propyl gallate added to the dispersion (Examples 1, 3b)): 594 nm
- particle size [1]: 290 nm
- polydispersity index PDI [1]: 0.193
- Retention Active ingredient content after 4-week premix test ([2]; propyl gallate 4%, dispersion): 61.2%
- Retention Active ingredient content after 4-week premix test ([2]; propyl gallate 6%, dispersion): 77.9%
- Retention Active ingredient content after 4-week premix test ([2]; propyl gallate 8%, dispersion): 83.3%
- Retention Active ingredient content after 4-week premix test ([2]; propyl gallate 9%, dispersion): 82.4%
- Retention Active ingredient content after 4-week premix test ([2]; propyl gallate 10%, dispersion): 69.8%
- Retention Active ingredient content after 4-week premix test ([2]; propyl gallate 12%, dispersion): 47.2%
- Retention Active ingredient content after 4-week test ([2]; Table 4a, D,L-α tocopherol 4% by wt., active ingredient phase): 45.7%
- Retention Active ingredient content after 4-week test ([2]; Table 4a, mixed tocopherol 4% by wt., active ingredient phase): 48.7%
- Retention Active ingredient content after 4-week test [2, 4]: 57.2%
- Retention Active ingredient content after 4-week test [2, 5]: 78.1%
- Retention Canthaxanthin after 4-week test ([2]; Table 5a, propyl gallate 0% by wt., mixed tocopherol 4% by wt.): 48.7%
- Retention Canthaxanthin after 4-week test ([2]; Table 5a, propyl gallate 4% by wt., mixed tocopherol 0% by wt.): 61.2%
- Retention Canthaxanthin after 4-week test ([2]; Table 5a, propyl gallate 4% by wt., mixed tocopherol 2% by wt.): 80.8%
- Retention Canthaxanthin after 4-week test ([2]; Table 5a, propyl gallate 4% by wt., mixed tocopherol 4% by wt.): 80.3%
- Retention Canthaxanthin after 4-week test ([2]; Table 5a, propyl gallate 6% by wt., mixed tocopherol 0% by wt.): 71.3%
- Retention Canthaxanthin after 4-week test ([2]; Table 5a, propyl gallate 8% by wt., mixed tocopherol 0% by wt.): 83.3%
- Retention Canthaxanthin after 4-week test ([2]; Table 5b, propyl gallate 4% by wt. (in protective colloid phase pH 7), mixed tocopherol 1% by wt. (in active ingredient phase)): 72.8%
- Retention Canthaxanthin after 4-week test ([2]; Table 5b, propyl gallate 4% by wt. (in protective colloid phase pH 7), mixed tocopherol 2% by wt. (in active ingredient phase)): 76%
- Retention Canthaxanthin after 4-week test ([2]; Table 5b, propyl gallate 4% by wt. (in protective colloid phase pH 7), mixed tocopherol 4% by wt. (in active ingredient phase)): 80.6%
SMILES: CC1=C(/C=C/C(C)=C/C=C/C(C)=C/C=C/C=C(C)/C=C/C=C(C)/C=C/C2=C(C)C(=O)CCC2(C)C)C(C)(C)CCC1=O [Canthaxanthin]

- particle size [3, 6]: 290 nm
- polydispersity index PDI [3, 6]: 0.180
- particle size [3, 7]: 280 nm
- polydispersity index PDI [3, 7]: 0.185
- Retention Active ingredient content after 4-week test ([2]; Table 3a, propyl gallate 0% by wt., dispersion): 7.9%
- Retention Active ingredient content after 4-week test ([2]; Table 3a, propyl gallate 2% by wt., dispersion): 20.2%
- Retention Active ingredient content after 4-week test ([2]; Table 3a, propyl gallate 3% by wt., dispersion): 26.7%
- Retention Active ingredient content after 4-week test ([2]; Table 3a, propyl gallate 4% by wt., dispersion): 47.8%
- Retention Active ingredient content after 4-week test ([2]; Table 3a, propyl gallate 5% by wt., dispersion): 45.7%
- Retention Active ingredient content after 4-week test ([2]; Table 3a, propyl gallate 6% by wt., dispersion): 45.9%
- Retention Active ingredient content after 4-week test ([2]; Table 3a, propyl gallate 7% by wt., dispersion): 49.5%
- Retention Active ingredient content after 4-week test ([2]; Table 3a, propyl gallate 8% by wt., dispersion): 55.9%
- Retention Active ingredient content after 4-week test ([2]; Table 3a, propyl gallate 8.5% by wt., dispersion): 51.9%
- Retention Active ingredient content after 4-week test ([2]; Table 3a, propyl gallate 9% by wt., dispersion): 57.4%
- Retention Active ingredient content after 4-week test ([2]; Table 3a, propyl gallate 10% by wt., dispersion): 19.6%
- Retention Active ingredient content after 4-week test [2, 4]: 21.3%
- Retention Active ingredient content after 4-week test [2, 5]: 67.5%
- Retention Canthaxanthin after 4-week test ([2]; Table 5c, propyl gallate 0% by wt., mixed tocopherol 4% by wt.): 10.8%
- Retention Canthaxanthin after 4-week test ([2]; Table 5c, propyl gallate 4% by wt., mixed tocopherol 0% by wt.): 39.1%
- Retention Canthaxanthin after 4-week test ([2]; Table 5c, propyl gallate 4% by wt., mixed tocopherol 4% by wt.): 66.5%
- Retention Canthaxanthin after 4-week test ([2]; Table 5d, 4% by wt. of ethoxyquin): 79.3%
- Retention Canthaxanthin after 4-week test ([2]; Table 5d, propyl gallate 0% by wt., BHT 4% by wt.): 56.1% and 65.5% and 67.9%
- Retention Canthaxanthin after 4-week test ([2]; Table 5d, propyl gallate 4% by wt., BHT 0% by wt.): 61.2%
- Retention Canthaxanthin after 4-week test ([2]; Table 5d, propyl gallate 4% by wt., BHT 4% by wt.): 82.3%
- Retention Active ingredient content after 4-week test ([2]; propyl gallate 4% by wt. added to dispersion in solid form without pre-dissolution): 47.2% and 44.9%
- Retention Active ingredient content after 4-week test ([2]; propyl gallate 4% by wt. added to dispersion, dissolved in water pH 7): 46% and 49.4% and 47.8%
- Retention (active constituent after 4 weeks in the test) ([2]; propyl gallate 4% by wt. added to dispersion, pH of sprayed dispersion 4.5): 42.2%
- Retention (active constituent after 4 weeks in the test) ([2]; propyl gallate 4% by wt. added to dispersion, pH of sprayed dispersion 6): 39.1%
- Retention (active constituent after 4 weeks in the test) ([2]; propyl gallate 4% by wt. added to dispersion, pH of sprayed dispersion 7): 47.8%
- Retention (active constituent after 4 weeks in the test) ([2]; propyl gallate 4% by wt. added to dispersion, pH of sprayed dispersion 8): 49.4%
- Retention (active constituent after 4 weeks in the test) ([2]; propyl gallate 4% by wt. added to dispersion, pH of sprayed dispersion 9): 28.2%
- Retention (active constituent after 4 weeks in the test) ([2]; propyl gallate 4% by wt. added to dispersion, pH of sprayed dispersion 10): 36.4%
- Retention (active constituent after 4 weeks in the test) ([2]; propyl gallate 4% by wt. added to dispersion, pH of sprayed dispersion 11): 14.7%
- Retention Active ingredient content after 4-week test ([2]; propyl gallate 4% by wt. in colloid phase, pH of the colloid phase 8.5-9.5): 13.4%
- Retention Active ingredient content after 4-week test ([2]; propyl gallate 4% by wt. in colloid phase, pH preadjustment to 7, then adjustment to pH 8.5 at maximum): 44.1%
SMILES: CC(=O)/C=C/C(C)=C/C=C/C(C)=C/C=C/C=C(C)/C=C/C=C(C)/C=C/C1=C(C)CCCC1(C)C [Citranaxanthin]

- particle size [1]: 262 nm
- polydispersity index PDI [1]: 0.268
- Retention Active ingredient content after 4-week test ([2]; Table 3d, ethoxyquin 4% by wt., dispersion): 22.2%
- Retention Active ingredient content after 4-week test ([2]; Table 3d, propyl gallate 4% by wt., dispersion): 30.3%
SMILES: CC1=C(/C=C/C(C)=C/C=C/C(C)=C/C=C/C=C(C)/C=C/C=C(C)/C=C/C2=C(C)CCCC2(C)C)C(C)(C)CCC1 [β-carotene]

Reference: patent publication US10835456B2, “Propyl gallate-containing vitamin preparations” (BASF SE, priority 2016, dated 2020)
